The values that follow come from patent US12479832B2, “Liver targeting drug, pharmaceutical composition and use thereof” (priority 2019, dated 2025).

The AUC(0-inf) is total exposure, with the tail of the curve extrapolated. Low readings indicate less exposure, high ones more exposure. By Cmax is commonly meant the peak of the concentration-time curve. What is called Kp is tissue or fluid exposure divided by exposure in the circulation. A word on the Tmax: it is the time from dosing to the highest level. As usually defined, the Vd is the apparent volume that relates the amount in the body to the concentration in plasma or blood. Read a high Vd as extensive tissue distribution. As usually defined, the clearance is a measure of how efficiently the substance is removed, as volume per time. Usually AUC(0-t) stands for exposure summed from dosing to a finite time, without extrapolation to infinity. A higher AUC(0-t) goes with high exposure. As usually defined, the half-life is the time needed for the level to fall by half in the phase considered.

Series [1] is described as follows: Pharmacokinetic study: Birinapant in plasma and liver after i.v. Birinapant or I-5-S in rats. As to conditions: rat, in vivo; for half-life: Birinapant measured after i.v. Birinapant 5 mg/kg, rats. The protocol: 1. Formulation of preparation and dosing: An appropriate amount of the test sample was precisely weighed, and mixed with an appropriate volume of a solvent (5% DMSO/5% Solutol/90% water) to obtain a clear solution or a homogeneous suspension. The preparation was administered to animals within 4 hours after formulation. The dosage formulation would be administered […] in accordance with facility standard operating procedures. The dosage volume would be determined by the body weights of the animals collected on the morning of administering. 2. Blood collection: Blood (approx. 0.2 ml per point in time) would be drawn each time from the jugular vein of every animal. All blood samples would be transferred to pre-cooled commercial EDTA-K2 test tubes, and kept on wet ice until they were centrifuged. 3. Plasma processing: Blood samples would be centrifuged (3200 rpm, 10 min) at approximately 4° C. Plasma was collected separately and transferred to pre-labeled PP tubes in wet ice at each point in time, and then immediately precipitated by ACN (6 IS) (the ratio of plasma:ACN was 1:4). Centrifugation (10 min, 12,000 rpm) was carried out again to obtain a supernatant. The supernatant was quickly frozen on dry ice and kept at -70±10° C. before LC/MS/MS analysis. 4. Liver processing: Liver tissues were collected at each point in time, washed twice with pre-cooled deionized water, and dried with filter paper. Liver tissues were immediately homogenized with 10-times volume of a methanol-water solution (1:2, v/v). After homogenization, a portion of liver tissue homogenate (e.g., 200 μL of homogenate) was immediately measured. After precipitated on wet ice, the samples were centrifuged, and a supernatant was collected and stored in a refrigerator at -70±10° C. before LC-MS/MS analysis. From the remaining liver homogenate, 800 μL of the homogenate was measured as a spare. […] After the solution of compound Birinapant was intravenously injected into rats, the concentrations of the active compound Birinapant in the rats were determined in the plasma and liver, respectively (see Table 1). After the solution of compound […] was intravenously injected into rats, the concentrations of the active compound Birinapant in the rats were determined in the plasma and liver, respectively (see Table 2).

For series [2] the following is noted: cited from earlier work.
For a further series, the system named is hepatitis B virus. As to conditions: animal models; cited from earlier work.
The test system of a further series is hepatocellular carcinoma. As to conditions: cited from earlier work.
Series [3] in a line: Pharmacokinetic test of Compound A or B given orally or intravenously to rats (plasma and liver). The class given is in vivo. As to conditions: administered orally or intravenously. The protocol:
To address the above-mentioned problems, the inventors have conducted intensive researches on analogues of Birinapant in the hope of reducing the toxic and side effects on the circulating system while maintaining or improving the therapeutic effect. […] Under the same conditions as described above, after rats were orally or intravenously injected with a solution of Compound A or B, the concentrations of Compound A or B and drug Birinapant in rats were measured in plasma and liver, respectively. […] Therefore, such prodrugs would have no value of application for Birinapant.

Molecules are shown by their SMILES. Values joined by “and” are separate entries in the source; they are usually repeats but may differ in a detail not shown here. Identical values can stand only once. “Also recorded” adds a separate entry of the source.

Turning to `CC[C@H](NC(=O)[C@H](C)NC)C(=O)N1C[C@@H](O)C[C@H]1Cc1c(-c2[nH]c3cc(F)ccc3c2C[C@@H]2C[C@H](O)CN2C(=O)[C@H](CC)NC(=O)[C@H](C)NC)[nH]c2cc(F)ccc12` [Birinapant], in series [1] (iv), the C0 worked out at 3470 ng/mL. In series [1] (iv, 5 mg/kg), this compound displayed an AUC0-24 of 40566 ng·h/g, an AUC0-inf of 76641 ng·h/g, an AUC0-last of 66712 ng·h/g and an AUC(0-inf) of 1090 ng·h/mL. Besides, in series [1] (iv, 5 mg/kg), the C0 is 3470 ng/mL; the Cmax was 3470 ng/mL and 4280 ng/g; the Kp came out at 64; the time to peak (Tmax) worked out at 0.25 h. Also, in series [1] (iv, 5 mg/kg), the Vd came out at 36.3 L/kg and the clearance turned out to be 76.3 mL/min/kg. The AUC(0-t) in series [1] (iv, 5 mg/kg, AUC0-24) came to 967 ng·h/mL. This compound also displayed an AUC(0-t) in series [1] (iv, 5 mg/kg, AUC0-last) of 1040 ng·h/mL. Further, in series [1] (iv, 5 mg/kg, liver), the half-life is 22.9 h. The half-life in series [1] (iv, 5 mg/kg, plasma) was 14.6 h. Besides, the “side effect in patients” value in series [2] (patients, high doses) was “paralysis of facial muscles”. In series [2] (per week or twice weekly, cancer clinical trials), the safe dose is listed as 17 mg/M2. For the same compound, in series [2] (twice weekly, limited by paralysis of facial muscles, cancer clinical trials), the “Dose Limited Toxicity” value is on record as 22 mg/M2. Also, the “inhibition of hepatitis B virus, particularly replication of HBsAg” value in the series on hepatitis B virus was “effective in inhibiting hepatitis B virus”. Further, the “survival in dosed mice” value in the series on hepatocellular carcinoma is “significantly prolonged”.

As to `CC[C@H](NC(=O)[C@H](C)N(C)C(=O)OCc1ccccc1)C(=O)N1C[C@@H](O)C[C@H]1Cc1c(-c2[nH]c3cc(F)ccc3c2C[C@@H]2C[C@H](O)CN2C(=O)[C@H](CC)NC(=O)[C@H](C)N(C)C(=O)OCc2ccccc2)[nH]c2cc(F)ccc12` [Compound A], in series [3], the “degradation by in vivo esterases to release the active drug Birinapant” value is “have not been degraded at all; also recorded: could not be degraded by in vivo esterase at all”; the excreted and recovered is listed as 100%.

Regarding `CCCCCOC(=O)N(C)[C@@H](C)C(=O)N[C@@H](CC)C(=O)N1C[C@@H](O)C[C@H]1Cc1c(-c2[nH]c3cc(F)ccc3c2C[C@@H]2C[C@H](O)CN2C(=O)[C@H](CC)NC(=O)[C@H](C)N(C)C(=O)OCCCCC)[nH]c2cc(F)ccc12` [Compound B], in series [3], the “degradation by in vivo esterases to release the active drug Birinapant” value was “have not been degraded at all; also recorded: could not be degraded by in vivo esterase at all”; the excreted and recovered was determined as 100%.

With `CC[C@H](NC(=O)[C@H](C)NC)C(=O)N1C[C@@H](OC(C)=O)C[C@H]1Cc1c(-c2[nH]c3cc(F)ccc3c2C[C@@H]2C[C@H](OC(C)=O)CN2C(=O)[C@H](CC)NC(=O)[C@H](C)NC)[nH]c2cc(F)ccc12` [Compound I-5-S], the “conversion of the prodrug into the active drug Birinapant” value in series [1] is “metabolized into the active pharmaceutical ingredient Birinapant”. For the same compound, in series [1] (iv), the “reduction of the maximum concentration of Birinapant in the plasma in comparison to direct use of Birinapant” value is reported as 94%, the “reduction of total drug exposure in the plasma in comparison to direct use of Birinapant” value was found to be 49% and the “total exposure of Birinapant released in liver relative to direct use of Birinapant” value is given as 2.4 times. Also, the “AUC Ratio (L/P)” value in series [1] (iv, 5.97 mg/kg) was 194.
